Reference: US5216005A, “Immunosuppressive analogues and derivatives of succinylacetone” (priority 1990, dated 1993)

How the values were obtained:
Assay type in all cases: cell-based
[1] = test system: IL-2 (human lymphoid cells); test: IL-2 production in primary mixed lymphocyte reaction (HT-2 cell assay); parameters: IL-2: unit not given here; conditions: for IL-2: 1° MLR
Procedure: Derivatives of succinylacetone were tested for immunosuppressive activity in several different types of assay systems. The first consisted of measuring the amounts of interleukin-2 (IL-2), and interferon-γ (IFN-γ) produced by human lymphoid cells in a mixed lymphocyte reaction. Low levels of these molecules in the reaction mixture indicate that the immune system is being suppressed by the subject succinylacetone derivatives. IL-2 was measured by enumerating the number of viable HT-2 cells found after an 18-24 hours period. HT-2 cells are a mouse IL-2 dependent cell line which die in the absence of IL-2. The assay is described by Gillis et al., J. of Immunol. […] The mixed lymphocyte reaction assay can be carried out by techniques well known to those skilled in the art. L. Hudson and F. C. Huy, Practical Immunology, p. […] Briefly this consists of isolating lymphocytes from human peripheral blood by standard density gradient centrifugation techniques from two separate individuals. Approximately 2×10^5 lymphocytes of each individual are combined to yield a total of 4×10^5 lymphocytes per culture. All procedures are carried out under sterile conditions, and the lymphocytes are isolated and kept in physiologically compatible solutions. To the mixture of lymphocytes is added a desired amount of an appropriate succinylacetone derivative, and after different times an aliquot of the mixture is removed and assayed for IL-2 or IFN-γ, or ^[…] is measured.

[2] = test system: human lymphoid cells; test: tritiated thymidine uptake in secondary mixed lymphocyte reaction; conditions: 2°-MLR; for inhibition at 740 µM / inhibition at 2200 µM / inhibition at 6700 µM / inhibition at 20000 µM: Homo sapiens, Lymphocyte
Procedure: In addition to testing the immunosuppressive activities of succinylacetone derivatives in a primary mixed lymphocyte reaction, or a phytohemagglutinin stimulation assay, two of the derivatives, succinylacetone methyl ester and methyl 4-acetyl-5-oxohexanoate, were tested in a secondary mixed lymphocyte reaction assay. The secondary mixed lymphocyte assays differs from the primary mixed lymphocyte reaction assays in that they employ many more primed responder cells that are responsive to the primary stimulating cells. The presence of such responsive cells is a reflection of immunological memory in an ongoing immunological response. […] These cells are then used in the secondary mixed lymphocyte reaction. It is worth noting that because a secondary mixed lymphocyte reaction is greatly enriched for responsive cells, fewer cells can be used in the secondary assay.
It will be appreciated that described therein is a method for carrying out secondary lymphocyte reactions using mouse cells, however such methods are generally applicable to performing secondary mixed lymphocyte reactions using human cells with modifications that are well known to those skilled in the art. […] The assays were conducted in duplicate involving lymphoid cells isolated from two individuals.

[3] = test system: human lymphocytes; test: phytohemagglutinin (PHA) stimulation assay, tritiated thymidine uptake
Procedure: A second assay widely used to study immune responsiveness is mitogenic stimulation of thymocytes with antigenic substances of plant origin. The most widely used plant molecule is phytohemagglutinin (PHA).
The procedure for carrying out the phytohaemagglutinin assay is also well known to those skilled in the art. Briefly, it consists of isolating human lymphocytes as described above, and incubating about 1.0×10^6 cells per ml in a suitable physiological solution with phytohaemagglutinin, and the appropriate concentration of succinylacetone-proline-NH-PEG. Tritiated thymidine is added 48 hours later and allowed to incubate for twenty-four hours before the cells are counted.

[4] = test system: human lymphocytes; test: tritiated thymidine uptake in primary mixed lymphocyte reaction; conditions: for incorporation of tritiated thymidine: Table IV
Source text: The in vitro mixed lymphocyte assay described below is presently employed in the clinical setting as an indicator of histocompatibility, and is premised on the transformation of resting genetically dissimilar lymphocytes into cells which synthesize DNA and undergo proliferation.
The mixed lymphocyte reaction assay can be carried out by techniques well known to those skilled in the art. L. Hudson and F. C. Huy, Practical Immunology, p. 260, Blackwell Scientific Publications (1976). Briefly this consists of isolating lymphocytes from human peripheral blood by standard density gradient centrifugation techniques from two separate individuals. Approximately 2×10^5 lymphocytes of each individual are combined to yield a total of 4×10^5 lymphocytes per culture. All procedures are carried out under sterile conditions, and the lymphocytes are isolated and kept in physiologically compatible solutions. To the mixture of lymphocytes is added a desired amount of an appropriate succinylacetone derivative, and after different times an aliquot of the mixture is removed and assayed for IL-2 or IFN-γ, or ^3 H-T is measured.
As mentioned above, one measure of an immune response as reflected in a mixed lymphocyte assay is the stimulation of DNA synthesis, and a concomitant increase in cell number. Thus, to further ascertain the immunosuppressive activity of succinylacetonyl-proline-NH-PEG, its effect on inhibition of thymocyte growth, as detected by uptake of tritiated thymidine, was assayed.

COC(=O)CCC(C(C)=O)C(C)=O [Methyl 4-Acetyl-5-Oxohexanoate, methyl 4-acetyl-5-oxohexanoate]
IL-2 ([1]; Exp I, 3 μM): 29 | IL-2 ([1]; Exp I, 9 μM): 46 | IL-2 ([1]; Exp I, 27 μM): 30 | IL-2 ([1]; Exp I, 81 μM): 42 | IL-2 ([1]; Exp I, 244 μM): 17 | IL-2 ([1]; Exp I, 733 μM): 17 | IL-2 ([1]; Exp I, 2.2 mM): 9 | IL-2 ([1]; Exp I, 6.7 mM): < 6 | IL-2 ([1]; Exp I, 20 mM): < 6 | IL-2 ([1]; Exp II, 3 μM): 70 | IL-2 ([1]; Exp II, 9 μM): 85 | IL-2 ([1]; Exp II, 27 μM): 52 | IL-2 ([1]; Exp II, 81 μM): 70 | IL-2 ([1]; Exp II, 244 μM): 52 | IL-2 ([1]; Exp II, 733 μM): 70 | IL-2 ([1]; Exp II, 2.2 mM): 35 | IL-2 ([1]; Exp II, 6.7 mM): < 12 | IL-2 ([1]; Exp II, 20 mM): < 12 | IC50 ([1]; Homo sapiens, HT2, primary MLR, read-out: concentration causing 50% reduction in IL-2 production): ~2.2 mM | CPM ([2]; Exp I, 247 μM): 73805 CPM | CPM ([2]; Exp I, 740 μM): 61568 CPM | CPM ([2]; Exp I, 2.2 mM): 1995 CPM | CPM ([2]; Exp I, 6.7 mM): 112 CPM | CPM ([2]; Exp I, 20 mM): 76 CPM | CPM ([2]; Exp II, 247 μM): 86893 CPM | CPM ([2]; Exp II, 740 μM): 88958 CPM | CPM ([2]; Exp II, 2.2 mM): 43264 CPM | CPM ([2]; Exp II, 6.7 mM): 4402 CPM | CPM ([2]; Exp II, 20 mM): 134 CPM | inhibition at 740 µM ([2]; Exp I, 740 μM): 23.6% | inhibition at 2200 µM ([2]; Exp I, 2.2 mM): 97.5% | inhibition at 6700 µM ([2]; Exp I, 6.7 mM): 9.99% | inhibition at 20000 µM ([2]; Exp I, 20 mM): 9.99% | inhibition at 740 µM ([2]; Exp II, 740 μM): 4.8% | inhibition at 2200 µM ([2]; Exp II, 2.2 mM): 53.7% | inhibition at 6700 µM ([2]; Exp II, 6.7 mM): 95.3% | inhibition at 20000 µM ([2]; Exp II, 20 mM): 9.99% | IC50 ([3]; Homo sapiens, Lymphocyte, both assays (two individuals), read-out: concentration causing about 50% inhibition in PHA stimulation): ~0.309 mM | PHA stimulation, cpm ± SD ([3]; first experiment, 3.8 μM): 19888 cpm | PHA stimulation, cpm ± SD ([3]; first experiment, 11 μM): 19401 cpm | PHA stimulation, cpm ± SD ([3]; first experiment, 34 μM): 19399 cpm | PHA stimulation, cpm ± SD ([3]; first experiment, 103 μM): 18677 cpm | PHA stimulation, cpm ± SD ([3]; first experiment, 309 μM): 14098 cpm | PHA stimulation, cpm ± SD ([3]; first experiment, 926 μM): 2776 cpm | PHA stimulation, cpm ± SD ([3]; first experiment, 2.8 mM): 116 cpm | PHA stimulation, cpm ± SD ([3]; first experiment, 25 mM): 200 cpm | PHA stimulation, cpm ± SD ([3]; first experiment, 83 mM): 192 cpm | PHA stimulation, cpm ± SD ([3]; second experiment, 3.8 μM): 33799 cpm | PHA stimulation, cpm ± SD ([3]; second experiment, 11 μM): 33417 cpm | PHA stimulation, cpm ± SD ([3]; second experiment, 34 μM): 34006 cpm | PHA stimulation, cpm ± SD ([3]; second experiment, 103 μM): 30569 cpm | PHA stimulation, cpm ± SD ([3]; second experiment, 309 μM): 19713 cpm | PHA stimulation, cpm ± SD ([3]; second experiment, 926 μM): 5600 cpm | PHA stimulation, cpm ± SD ([3]; second experiment, 2.8 mM): 717 cpm | PHA stimulation, cpm ± SD ([3]; second experiment, 25 mM): 200 cpm | PHA stimulation, cpm ± SD ([3]; second experiment, 83 mM): 156 cpm | IC50 ([4]; Homo sapiens, Lymphocyte, primary MLR, read-out: concentration causing 50% inhibition in thymidine uptake): ~2.2 mM | incorporation of tritiated thymidine ([4]; Exp I, 3 μM): 74259 | incorporation of tritiated thymidine ([4]; Exp I, 9 μM): 77627 | incorporation of tritiated thymidine ([4]; Exp I, 27 μM): 77634 | incorporation of tritiated thymidine ([4]; Exp I, 81 μM): 81881 | incorporation of tritiated thymidine ([4]; Exp I, 244 μM): 48284 | incorporation of tritiated thymidine ([4]; Exp I, 733 μM): 67787 | incorporation of tritiated thymidine ([4]; Exp I, 2.2 mM): 29389 | incorporation of tritiated thymidine ([4]; Exp I, 6.7 mM): 135 | incorporation of tritiated thymidine ([4]; Exp I, 20 mM): 163 | incorporation of tritiated thymidine ([4]; Exp II, 3 μM): 114713 | incorporation of tritiated thymidine ([4]; Exp II, 9 μM): 117109 | incorporation of tritiated thymidine ([4]; Exp II, 27 μM): 112463 | incorporation of tritiated thymidine ([4]; Exp II, 81 μM): 113054 | incorporation of tritiated thymidine ([4]; Exp II, 244 μM): 122672 | incorporation of tritiated thymidine ([4]; Exp II, 733 μM): 113732 | incorporation of tritiated thymidine ([4]; Exp II, 2.2 mM): 84363 | incorporation of tritiated thymidine ([4]; Exp II, 6.7 mM): 21280 | incorporation of tritiated thymidine ([4]; Exp II, 20 mM): 109
